One block for each compound: values may come before it.
What was measured:
Assay in all cases: ITC
[1] = system: FXd (DNA, aptamer) GGGACGACGGTGTGGGGGTAGGGGGTGTGGGAAGCGGCGTCGTCCC; conditions: 23 °C; selection buffer (Supplementary Table S1); one-site model
[2] = system: NC423 (DNA, aptamer) CTTACGACTTGTTCTGAGGGTCAACGGTGGTGTAGTTAGTCGTAAG
[3] = system: NCB (DNA, aptamer) CTTACGACACAGGGCGTGGAGGAGCTGGGCTATTAGGGGTCGTAAG
[4] = system: NC1947 (DNA, aptamer) CTTACGACACAGGGCGTGGAGTGGCTGGGCTTCAAGGGGTCGTAAG
[5] = system: OM7 (DNA, aptamer) GGGACGACATCGTAGGGGCACACGCTTAACGGGCTGATGTCGTCCC

KD [1]: 27400 nM
SMILES: Cc1c(Nc2ncccc2C(=O)O)cccc1C(F)(F)F

KD [2]: 22 nM
KD [3]: 1000 nM
KD [4]: 123 nM
SMILES: COC(=O)[C@H]1[C@@H](OC(=O)c2ccccc2)C[C@@H]2CC[C@H]1N2C

KD [5]: 1400 nM
SMILES: COc1ccc2c3c1O[C@H]1C(=O)CC[C@@]4(O)[C@@H](C2)N(C)CC[C@]314

Source: paper PMC11952966 (2025)
